According to PubChem BioAssay (NCI):
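Protocol summary: plate cells (96-well), add compound at 5 concentrations, incubate 48 h, interpolate endpoints linearly. TGI is the concentration that stops growth completely.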

Columns and labels:
Assay in all cases: NCI tumour cell line growth inhibition, 48 h
[1] = tested on: 786-0 renal
[2] = tested on: A498 renal
[3] = tested on: A549 NSCLC
[4] = tested on: ACHN renal
[5] = tested on: BT-549 breast
[6] = tested on: CAKI-1 renal
[7] = tested on: CCRF-CEM leukemia
[8] = tested on: COLO 205 colon
[9] = tested on: DLD-1 colon
[10] = tested on: DMS 114 small cell lung
[11] = tested on: DMS 273 small cell lung
[12] = tested on: DU-145 prostate
[13] = tested on: EKVX NSCLC
[14] = tested on: HCC-2998 colon
[15] = tested on: HCT-116 colon
[16] = tested on: HCT-15 colon
[17] = tested on: HL-60(TB) leukemia
[18] = tested on: HOP-18 NSCLC
[19] = tested on: HOP-62 NSCLC
[20] = tested on: HOP-92 NSCLC
[21] = tested on: HS 578T breast
[22] = tested on: HT29 colon
[23] = tested on: IGROV1 ovarian
[24] = tested on: K-562 leukemia
[25] = tested on: KM12 colon
[26] = tested on: LOX IMVI melanoma
[27] = tested on: LXFL 529 NSCLC
[28] = tested on: M14 melanoma
[29] = tested on: M19-MEL melanoma
[30] = tested on: MALME-3M melanoma
[31] = tested on: MCF7 breast
[32] = tested on: MDA-MB-231 breast
[33] = tested on: MDA-MB-435
[34] = tested on: MDA-N
[35] = tested on: MOLT-4 leukemia
[36] = tested on: NCI-H226 lung
[37] = tested on: NCI-H23 lung
[38] = tested on: NCI-H460 lung
[39] = tested on: NCI-H522 lung
[40] = tested on: NCI/ADR-RES ovarian
[41] = tested on: OVCAR-3 ovarian
[42] = tested on: OVCAR-4 ovarian
[43] = tested on: OVCAR-5 ovarian
[44] = tested on: OVCAR-8 ovarian
[45] = tested on: PC-3 prostate
[46] = tested on: RPMI-8226 leukemia
[47] = tested on: RXF 393 renal
[48] = tested on: SF-268 CNS
[49] = tested on: SF-295 CNS
[50] = tested on: SF-539 CNS
[51] = tested on: SK-MEL-2 melanoma
[52] = tested on: SK-MEL-28 melanoma
[53] = tested on: SK-MEL-5 melanoma
[54] = tested on: SK-OV-3 ovarian
[55] = tested on: SN12C renal
[56] = tested on: SNB-19 CNS
[57] = tested on: SNB-75 CNS
[58] = tested on: SR leukemia
[59] = tested on: SW-620 colon
[60] = tested on: T-47D breast
[61] = tested on: TK-10 renal
[62] = tested on: U251 CNS
[63] = tested on: UACC-257 melanoma
[64] = tested on: UACC-62 melanoma
[65] = tested on: UO-31 renal
[66] = tested on: XF 498 CNS

Question: How did the TGI [1] turn out when `O=C1C(Cl)=C(c2ccc([N+](=O)[O-])cc2)C(=O)c2c(O)cccc21` was run?
Answer: Its TGI is 8.82 µM.

Question: And the TGI [2]?
Answer: Its TGI is 12.5 µM.

Question: And the TGI [3]?
Answer: The TGI was 25 µM.

Question: And the TGI [4]?
Answer: Its TGI is 2.36 µM.

Question: What about the TGI [5] of the same compound?
Answer: Its TGI is 4.72 µM.

Question: What about the TGI [6] of the same compound?
Answer: Its TGI is 3.86 µM.

Question: What about the TGI [7] of the same compound?
Answer: Its TGI is greater than 100 µM.

Question: And the TGI [8]?
Answer: Its TGI is 3.66 µM.

Question: And the TGI [9]?
Answer: Its TGI is 2.55 µM.

Question: What about the TGI [10] of the same compound?
Answer: The TGI was 0.786 µM.

Question: What about the TGI [11] of the same compound?
Answer: The TGI was greater than 100 µM.

Question: What about the TGI [12] of the same compound?
Answer: Its TGI is 19.4 µM.

Question: And the TGI [13]?
Answer: The TGI was 33.4 µM.

Question: What about the TGI [14] of the same compound?
Answer: Its TGI is 6.24 µM.

Question: What about the TGI [15] of the same compound?
Answer: The TGI was 3.55 µM.

Question: What about the TGI [16] of the same compound?
Answer: Its TGI is 3.35 µM.

Question: What about the TGI [17] of the same compound?
Answer: The TGI was greater than 100 µM.

Question: What about the TGI [18] of the same compound?
Answer: The TGI was 2.04 µM.

Question: And the TGI [19]?
Answer: Its TGI is 14.8 µM.

Question: And the TGI [20]?
Answer: The TGI was 3.15 µM.

Question: And the TGI [21]?
Answer: Its TGI is 4.13 µM.

Question: And the TGI [22]?
Answer: Its TGI is 7.37 µM.

Question: And the TGI [23]?
Answer: The TGI was 4.34 µM.

Question: And the TGI [24]?
Answer: The TGI was greater than 100 µM.

Question: What about the TGI [25] of the same compound?
Answer: Its TGI is 3.63 µM.

Question: What about the TGI [26] of the same compound?
Answer: The TGI was 3.6 µM.

Question: And the TGI [27]?
Answer: The TGI was 0.94 µM.

Question: What about the TGI [28] of the same compound?
Answer: Its TGI is 3.66 µM.

Question: What about the TGI [29] of the same compound?
Answer: The TGI was 3.52 µM.

Question: What about the TGI [30] of the same compound?
Answer: The TGI was 4.49 µM.

Question: And the TGI [31]?
Answer: The TGI was 14.2 µM.

Question: And the TGI [32]?
Answer: Its TGI is 3.13 µM.

Question: What about the TGI [33] of the same compound?
Answer: The TGI was 4.8 µM.

Question: What about the TGI [34] of the same compound?
Answer: Its TGI is 6.53 µM.

Question: And the TGI [35]?
Answer: Its TGI is greater than 100 µM.

Question: What about the TGI [36] of the same compound?
Answer: Its TGI is 5.74 µM.

Question: What about the TGI [37] of the same compound?
Answer: Its TGI is 4.14 µM.

Question: What about the TGI [38] of the same compound?
Answer: Its TGI is 6.99 µM.

Question: What about the TGI [39] of the same compound?
Answer: Its TGI is 0.545 µM.

Question: What about the TGI [40] of the same compound?
Answer: The TGI was 17.1 µM.

Question: And the TGI [41]?
Answer: The TGI was 3.11 µM.

Question: And the TGI [42]?
Answer: Its TGI is 4.62 µM.

Question: And the TGI [43]?
Answer: Its TGI is 5.98 µM.

Question: And the TGI [44]?
Answer: Its TGI is 5.78 µM.

Question: What about the TGI [45] of the same compound?
Answer: Its TGI is 7.28 µM.

Question: And the TGI [46]?
Answer: Its TGI is greater than 100 µM.

Question: What about the TGI [47] of the same compound?
Answer: Its TGI is 3.49 µM.

Question: And the TGI [48]?
Answer: The TGI was 22.4 µM.

Question: And the TGI [49]?
Answer: Its TGI is 8.19 µM.

Question: And the TGI [50]?
Answer: The TGI was 1.13 µM.

Question: And the TGI [51]?
Answer: Its TGI is 2.22 µM.

Question: And the TGI [52]?
Answer: Its TGI is 4.16 µM.

Question: What about the TGI [53] of the same compound?
Answer: The TGI was 3.46 µM.

Question: What about the TGI [54] of the same compound?
Answer: The TGI was 8.64 µM.

Question: And the TGI [55]?
Answer: The TGI was 10.7 µM.

Question: What about the TGI [56] of the same compound?
Answer: The TGI was 5.68 µM.

Question: And the TGI [57]?
Answer: Its TGI is 7.13 µM.

Question: And the TGI [58]?
Answer: Its TGI is greater than 100 µM.

Question: What about the TGI [59] of the same compound?
Answer: The TGI was 3.66 µM.

Question: And the TGI [60]?
Answer: Its TGI is 5.54 µM.

Question: What about the TGI [61] of the same compound?
Answer: The TGI was 10.7 µM.

Question: What about the TGI [62] of the same compound?
Answer: Its TGI is 2.22 µM.

Question: And the TGI [63]?
Answer: Its TGI is 4.84 µM.

Question: What about the TGI [64] of the same compound?
Answer: Its TGI is 1.98 µM.

Question: What about the TGI [65] of the same compound?
Answer: Its TGI is 3.84 µM.

Question: What about the TGI [66] of the same compound?
Answer: Its TGI is 1.95 µM.
